According to US7947626B2 (priority 2006, dated 2011):

Columns and labels:
[1] = test system: primary cortical stem cell and progenitor cell derived neural networks; type: cell-based, rat
[2] = test system: passaged cortical stem and progenitor cell derived neural networks; type: cell-based, rat

Molecule | mean spike rate (MSR) response of the network [1] | mean spike rate (MSR) response of the network [2] | raw action potential spike activity, single channel 10 second trace [2]
NC(CCCP(=O)(O)O)C(=O)O (racemic) [APV, DL-2-amino-5-phosphonovaleric acid] | No additional decrease in network activity | decrease in MSR | incremental effects of APV on both spike rate and burst pattern
cadmium chloride |  | responsive | 
N#Cc1cc2c(cc1[N+](=O)[O-])=NC(=O)C(=O)N=2 [CNQX, 6-cyano-7-nitroquinoxaline-2,3-dione] | decrease in MSR | further decrease in activity | near total blockade of action potentials
